Measurements from patent publication US20190375786A1, “STABLE PEPTIDES AND METHODS OF USE THEREOF” (Fred Hutchinson Cancer Research Center, priority 2016, published 2019).
Positions of bridges follow the written chain, without caps; N, C: chain ends. Residues, ends and D or L forms follow the SMILES beside them.

What was measured:
pepsin = pepsin (Sus scrofa, UniProt P00791); assay: Pepsin digestion resistance in simulated gastric fluid, RP-HPLC; format: in vitro ADME, porcine; parameters: purchased Sigma Aldrich P7012; details: 500 U/ml pepsin in SGF pH 1.05, 30 minutes at 37.5° C.; HPLC peak vs untreated peptide
pepsin, sequence (P00791 60-385): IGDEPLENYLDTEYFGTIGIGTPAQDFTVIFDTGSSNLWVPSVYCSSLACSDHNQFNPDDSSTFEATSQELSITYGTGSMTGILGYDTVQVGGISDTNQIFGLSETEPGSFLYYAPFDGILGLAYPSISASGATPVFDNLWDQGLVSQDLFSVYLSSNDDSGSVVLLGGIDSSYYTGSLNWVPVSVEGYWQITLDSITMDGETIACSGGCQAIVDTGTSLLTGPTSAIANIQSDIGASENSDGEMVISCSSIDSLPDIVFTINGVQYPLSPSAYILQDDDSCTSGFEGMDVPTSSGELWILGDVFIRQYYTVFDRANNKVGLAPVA
Procedure: Peptides were first suspended in 500 ul of ddH2O to a stock concentration of 2 mg/ml. Reactions were prepared by adding 12.5 ug of peptide from the stock solution to a 10 mM solution of DTT in PBS and allowed to incubate at room temperature for 30 minutes. Other reactions were prepared with 12.5 μg peptide with or without 500 U/ml pepsin in simulated gastric fluid (SGF; pH 1.05; […] sodium chloride in 0.7% (v/v) hydrochloric acid) and were incubated for 30 minutes at 37.5° C. Some reactions were quenched with a final concentration of 100 mM Tris base and 10 mM dithiothreitol (DTT). Some reactions were performed in all of the above components, including simulated gastric fluid, pepsin, Tris, and DTT (referred to as SPTD). Reversed phase HPLC (RP-HPLC) was run on samples using an Agilent 1260 HPLC equipped with a C-18 Poroshell 120B column. Sample were analyzed by a gradient method with a mobile phase of Solvent A (water with 0.1% TFA) and Solvent B (acetonitrile with 0.1% TFA). Solvent B was ramped up from 5%-45% of the mobile phase over a period of 10 minutes. Peptides were detected at an absorbance of 214 nm and 280 nm.
(§1) Peptides were first suspended in 500 μl of ddH2O to a stock concentration of 2 mg/ml. Reactions were prepared by adding 12.5 μg of peptide from the stock solution to a 10 mM solution of DTT in PBS and allowed to incubate at room temperature for 30 minutes. Other reactions were prepared with 12.5 μg peptide and 500 U/ml trypsin in 25 mM Tris/75 mM NaCl buffer (pH 7.0) and incubated for 30 minutes at 37.5° C. These reactions were then quenched with 5 μg of soybean trypsin inhibitor (I) and, in some cases, 10 mM dithiothreitol (DTT). Reversed phase HPLC (RP-HPLC) was run on samples using an Agilent 1260 HPLC equipped with a C-18 Poroshell 120B column. Sample were analyzed by a gradient method with a mobile phase of Solvent A (water with 0.1% TFA) and Solvent B (acetonitrile with 0.1% TFA). Solvent B was ramped up from 5%-45% of the mobile phase over a period of 10 minutes. For testing pepsin digestion resistance, reactions were prepared with 12.5 μg peptide with or without 500 U/ml pepsin in simulated gastric fluid (SGF; pH 1.05; […] sodium chloride in 0.7% (v/v) hydrochloric acid) and were incubated for 30 minutes at 37.5° C. For testing temperature resistance, peptides were incubated at 70° C., 75° C., or 100° C. for one hour in 0.5 mM PBS, pelleted, and then the supernatant was analyzed by HPLC.
(§2) This example illustrates peptide stability in biological conditions including in the presence of reducing agents, proteases, oxidative conditions, acidic conditions, and simulated gastric fluids. […] Various peptides were suspended in 500 μl of ddH2O at a stock concentration of 2 mg/ml. This was then diluted in accord with the reaction conditions to prevent adverse buffering effects. Reactions were prepared with 12.5 μg peptide dissolved in solution and, in some samples, additionally suspended in a 10 mM solution of DTT, simulated gastric fluid (pH 1.05; […] sodium chloride in 0.7% (v/v) hydrochloric acid), 500 U pepsin (5000 U/ml pepsin), 50 U trypsin (500 U/ml trypsin) with 1 mg/ml inhibitor in PBS, or a combination of any of these conditions. All protease reactions were incubated for 30 min at room temperature and then quenched. Pepsin reactions were quenched by adding Tris base to a final concentration of 0.075 M. Trypsin reactions were quenched by adding excess soybean trypsin inhibitor. RP-HPLC was then run on samples using an Agilent 1260 HPLC equipped with a C-18 Poroshell 120B column. Sample were analyzed by a gradient method with a mobile phase of Solvent A (water with 0.1% TFA) and Solvent B (acetonitrile with 0.1% TFA). Solvent B was ramped up from 5%-45% of the mobile phase over a period of 10 minutes.
FIG. 20 illustrates high performance liquid chromatograph (HPLC) traces of peptides after pepsin digestion. […]

trypsin = trypsin (Sus scrofa, UniProt P00761); assay: Trypsin digestion resistance of soluble peptide, RP-HPLC; format: in vitro ADME, porcine; parameters: purchased Sigma Aldrich 6567; details: 500 U/ml trypsin, 30 minutes at 37.5° C.; HPLC peak vs untreated peptide
trypsin, sequence (P00761 9-231): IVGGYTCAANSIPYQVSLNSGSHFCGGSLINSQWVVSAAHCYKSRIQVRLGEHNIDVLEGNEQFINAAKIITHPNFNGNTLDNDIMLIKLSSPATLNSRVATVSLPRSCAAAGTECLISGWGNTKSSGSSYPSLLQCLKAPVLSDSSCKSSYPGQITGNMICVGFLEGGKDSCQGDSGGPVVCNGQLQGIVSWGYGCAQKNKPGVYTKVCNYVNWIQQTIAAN
Procedure: as §1, §2
Soluble peptides were exposed to 500 U/mL porcine trypsin and analyzed by HPLC. Protease resistance was also assessed by using SDPR-displaying peptides. The SDPR vector is similar to the a surface display GFP FasL(SDGF) vector, but contains a C-terminal 6×His tag (SEQ ID NO: 180) and all basic or aromatic amino acid residues on the stalk removed. Protease resistance is then tested by incubation of cells displaying peptides with trypsin or chymotrypsin, followed by incubation in 10 mM DTT, and staining with an anti-6×His fluorophore-labeled antibody (“6×His” disclosed as SEQ ID NO: 180). If peptides are uncleaved, they retain the His tag and are stained with by the antibody. A control protease-sensitive knottin peptide (SK) was used as a positive control. Cells displaying peptides were treated with up to 40 μg/ml trypsin or chymotrypsin.
FIG. 21 illustrates high performance liquid chromatograph (HPLC) traces of peptides after trypsin digestion. […] The assay was carried out by reconstituting 1 mg porcine trypsin (Sigma Aldrich 6567) in 1 mL of 1 mM HCl. Trypsin was provided at a concentration of 10,000 u/mL and thus, 5 μl of stock solution was equivalent to using 50 U of trypsin in each reaction. Soybean trypsin inhibitor (SA T9128) was prepared at 1 mg/mL of in H2O. […]

Compound | Resistance to Pepsin (500 U/ml) (pepsin) | Resistance to Trypsin (500 U/ml) (trypsin)
CC[C@H](C)[C@@H]1NC(=O)[C@@H]2CSSC[C@@H]3NC(=O)[C@H](CCCCN)NC(=O)CNC(=O)[C@H](CC(N)=O)NC(=O)[C@H](CCSC)NC(=O)[C@H](CSSC[C@H](NC(=O)[C@H](CCCCN)NC(=O)[C@@H](NC(=O)[C@H](CC(=O)O)NC(=O)[C@@H](NC(=O)[C@@H]4CCCN4C(=O)[C@@H](NC(=O)CNC(=O)[C@H](CO)NC(=O)CN)C(C)C)[C@@H](C)O)C(C)C)C(=O)N[C@@H](CCCNC(=N)N)C(=O)NCC(=O)N[C@@H](CO)C(=O)N4CCC[C@H]4C(=O)N[C@@H](CCC(N)=O)C(=O)N2)NC(=O)[C@H](CCCCN)NC(=O)CNC(=O)[C@H](Cc2ccccc2)NC(=O)[C@H](CCCNC(=N)N)NC(=O)[C@H](CCSC)NC(=O)CNC(=O)[C@H](C)NC(=O)[C@H](CC(=O)O)NC(=O)[C@H](CCCCN)NC(=O)[C@H](CSSC[C@@H](C(=O)N[C@H](C(=O)N2CCC[C@H]2C(=O)N[C@@H](CCCCN)C(=O)O)[C@@H](C)O)NC(=O)[C@H](Cc2c[nH]cn2)NC3=O)NC(=O)[C@@H]2CCCN2C(=O)[C@H](CCC(N)=O)NC1=O [compound 56] (H-GSGVPTDVKCRGSPQCIQPCKDAGMRFGKCMNGKCHCTPK-OH; disulfide 10-30, 16-35, 20-37) | High (A peptide classified as high indicates that the majority (at least 75%) of the HPLC peak of the treated peptide is still present as compared to the HPLC peak of the untreated peptide) | Low (A peptide classified as low indicates that the majority (over 75%) of the HPLC peak of the treated peptide disappeared as compared to the HPLC peak of the untreated peptide)
CC[C@H](C)[C@@H]1NC(=O)[C@H](CCC(=O)O)NC(=O)[C@H](CCCNC(=N)N)NC(=O)[C@H](CCCNC(=N)N)NC(=O)[C@@H]2CSSC[C@@H](C(=O)N[C@@H](Cc3ccc(O)cc3)C(=O)N[C@@H](CCCNC(=N)N)C(=O)N[C@@H](CC(N)=O)C(=O)O)NC(=O)[C@H](C(C)C)NC(=O)[C@@H]3CSSC[C@H](NC(=O)[C@H](CO)NC(=O)CNC(=O)CNC(=O)[C@H](CCC(N)=O)NC(=O)[C@@H](NC(=O)[C@H](CCCCN)NC(=O)[C@@H](NC(=O)[C@H](CC(N)=O)NC(=O)[C@@H](NC(=O)[C@H](CCC(N)=O)NC(=O)[C@@H](NC(=O)[C@H](CCC(N)=O)NC(=O)[C@H](CO)NC(=O)CN)C(C)C)[C@@H](C)O)C(C)C)CSSC[C@H](NC(=O)[C@H](CCCCN)NC(=O)CNC(=O)[C@H](C)NC(=O)[C@H](C)NC(=O)[C@H](C(C)C)NC(=O)CNC1=O)C(=O)N[C@@H]([C@@H](C)CC)C(=O)N[C@@H](CC(N)=O)C(=O)NCC(=O)N[C@@H](CCCCN)C(=O)N3)C(=O)N[C@@H](C)C(=O)N[C@@H](CO)C(=O)N[C@@H](C(C)C)C(=O)N2 [compound 30] (H-GSQVQTNVKCQGGSCASVCRREIGVAAGKCINGKCVCYRN-OH; disulfide 10-30, 15-35, 19-37) | Moderate (A peptide classified as medium indicates that about half (between 25% and 75%) of the HPLC peak of the treated peptide disappeared as compared to the HPLC peak of the untreated peptide) | Low (A peptide classified as low indicates that the majority (over 75%) of the HPLC peak of the treated peptide disappeared as compared to the HPLC peak of the untreated peptide)
